Data from ChEMBL document CHEMBL4419173, “Small-molecule inhibitors targeting g-protein-coupled rho guanine nucleotide exchange factors” (2014).
The source made the active and inactive calls. No cut-off for these calls is given here.

How the values were obtained:
[1] = target: Serine/threonine-protein kinase N1/Transforming protein RhoA (Homo sapiens) (UniProt Q16512+P61586); assay: Inhibition of human PKN1 expressed in mouse NIH/3T3 cells assessed as reduction in human full length RhoA (1 to 193 residues) interaction with PKN1 at 50 to 200 uM incubated for 1 hr by Western blot analysis based His-RhoA pull-down assay; format: cell-based
[2] = species: Mus musculus; assay: Inhibition of RhoGEF-mediated RhoA signaling in mouse NIH/3T3 cells assessed as reduction in 10% calf serum-induced stress fiber and focal complex formation 30 uM incubated for 24 hrs; format: cell-based
[3] = target: T1, Rho guanine nucleotide exchange factor 12 (Homo sapiens, UniProt Q9NZN5); assay: Binding affinity to recombinant human LARG (765 to 1138 residues) containing DH-PH catalytic module by microscale thermophoresis analysis
[4] = species: Mus musculus; assay: Inhibition of RhoGEF-mediated RhoA signaling in mouse NIH/3T3 cells assessed as inhibition of SDF1a-induced phospho-FAK formation at 10 to 30 uM incubated for 24 hrs by densitometry; format: cell-based
[5] = target: T2, RhoGEF 1/Transforming protein RhoA (Homo sapiens) (UniProt P61586+Q92888); assay: (§1) Binding affinity to human LARG (765 to 1138 residues) DH-PH module expressed in mouse NIH/3T3 cells assessed as reduction in LARG binding to human full length RhoA (1 to 193 residues) by measuring relative LARG binding level at 10 uM pull-down assay (reference value: 1 No unit); format: cell-based
[6] = species: Homo sapiens; assay: Inhibition of GST-tagged human TrioN (1284 to 1711 residues) RhoGEF-catalyzed guanine nucleotide-exchange reaction of human full length Rac1 (1 to 192 residues) by measuring inhibition of the GDP dissociation from Rac1 at 0.76 to 250000 nM by Alexa 647 fluorescence dye based GDP/GTP exchange assay
[7] = species: Mus musculus; assay: Inhibition of RhoGEF in mouse NIH/3T3 cells assessed as inhibition of 10% calf serum-induced Rac1-GTP formation by measuring relative Rac1-GTP level at 50 uM incubated for 24 hrs by densitometry (reference value: 1); format: cell-based
[8] = target: T1, Rho guanine nucleotide exchange factor 12; assay: Inhibition of human LARG (765 to 1138 residues) RhoGEF binding to human full length RhoA (1 to 193 residues)
[9] = test system: MCF7; assay: Inhibition of RhoGEF in human MCF7 cells derived mammospheres assessed as inhibition of 10% calf serum-induced RhoA-GTP formation by measuring relative RhoA-GTP level at 2.5 uM in presence of 2.5 uM Rhosin/G04 incubated for 24 hrs by densitometry (reference value: 1); format: cell-based
[10] = test system: MCF7; assay: Inhibition of RhoGEF in human MCF7 cells derived mammospheres assessed as inhibition of 10% calf serum-induced RhoA-GTP formation by measuring relative RhoA-GTP level at 30 uM incubated for 24 hrs by densitometry (reference value: 1); format: cell-based
[11] = target: T1, Rho guanine nucleotide exchange factor 12; assay: Inhibition of human LARG (765 to 1138 residues) RhoGEF binding to human full length RhoA (1 to 193 residues) in presence of Rhosin/G04
[12] = test system: MCF7; assay: Inhibition of mammospheres formation in human MCF7 cells at 2.5 to 15 uM in presence of 2.5 to 15 uM Rhosin/G04 incubated for 10 days; format: functional, cell-based
[13] = species: Mus musculus; assay: Inhibition of RhoGEF in mouse NIH/3T3 cells assessed as inhibition of 10% calf serum-induced RhoA-GTP formation by measuring RhoA-GTP level at 30 uM incubated for 24 hrs by densitometry relative to control (reference value: 2.15); format: cell-based
[14] = test system: MCF7; assay: Inhibition of cell migration of human MCF7 cells at 10 to 50 uM; format: functional, cell-based
[15] = species: Mus musculus; assay: Inhibition of RhoGEF in mouse NIH/3T3 cells assessed as inhibition of 10% calf serum-induced Rac1-GTP formation by measuring Rac1-GTP level at 30 uM incubated for 24 hrs by densitometry relative to control (reference value: 2.86); format: cell-based
[16] = test system: Rho-associated protein kinase 2 (Homo sapiens), O75116 [UNDEFINED MUTATION]; assay: Inhibition of constitutively active ROCK2 mutant (unknown origin) expressed in mouse NIH/3T3 cells assessed as reduction in 10% calf serum-induced focal adhesion complex formation at 530 uM by anti-vinculin antibody staining based assay; format: cell-based
[17] = test system: Transforming protein RhoA (Homo sapiens), P61586 [Q63L]; assay: Inhibition of constitutively active RhoA Q63L mutant (unknown origin) expressed in mouse NIH/3T3 cells assessed as reduction in 10% calf serum-induced actin stress fiber formation at 50 uM by rhodamine-phalloidin staining based assay; format: cell-based
[18] = test system: MCF7; assay: Inhibition of cell invasion of human MCF7 cells at 10 to 50 uM by Matrigel-coated transwell based assay; format: functional
[19] = species: Mus musculus; assay: Inhibition of RhoGEF-mediated Rac1 signaling in mouse NIH/3T3 cells assessed as reduction in PDGF-stimulated Rac1-mediated lamellipodia formation at 10 to 30 uM; format: cell-based
[20] = test system: Transforming protein RhoA (Homo sapiens), P61586 [Q63L]; assay: Inhibition of constitutively active RhoA Q63L mutant (unknown origin) expressed in mouse NIH/3T3 cells assessed as reduction in 10% calf serum-induced phospho-MLC formation at 50 uM incubated for 24 hrs by densitometry; format: cell-based
[21] = target: T2, RhoGEF 1/Transforming protein RhoA (Homo sapiens); assay: as §1, with “5” for “10”, “uM in presence of 5 uM Rhosin/G04” for “uM”; format: cell-based
[22] = species: Homo sapiens; assay: Inhibition of GST-tagged human TrioN RhoGEF (1284 to 1711 residues) expressed in mouse NIH/3T3 cells assessed as reduction in human full length Rac1 (1 to 192 residues) interaction with TrioN RhoGEF at 50 to 200 uM incubated for 1 hr by Western blot analysis based pull-down assay; format: cell-based
[23] = test system: MCF7; assay: Inhibition of RhoGEF in human MCF7 cells derived mammospheres assessed as inhibition of 10% calf serum-induced RhoA-GTP formation at 2.5 uM in presence of 2.5 uM Rhosin/G04 incubated for 24 hrs by densitometry relative to control; format: cell-based
[24] = test system: MCF7; assay: Inhibition of RhoGEF in human MCF7 cells derived mammospheres assessed as inhibition of RhoA-mediated phospho-MLC formation incubated for 24 hrs by densitometry; format: cell-based
[25] = species: Mus musculus; assay: Inhibition of RhoGEF in mouse NIH/3T3 cells assessed as inhibition of 10% calf serum-induced RhoA-GTP formation by measuring relative RhoA-GTP level at 10 uM incubated for 24 hrs by densitometry (reference value: 1); format: cell-based
[26] = species: Mus musculus; assay: Inhibition of RhoGEF in mouse NIH/3T3 cells assessed as inhibition of 10% calf serum-induced Cdc42-GTP formation by measuring relative Cdc42-GTP level at 50 uM incubated for 24 hrs by densitometry (reference value: 1); format: cell-based
[27] = target: Rho guanine nucleotide exchange factor 12 (Homo sapiens, UniProt Q9NZN5, N983A); assay: Binding affinity to recombinant human LARG (765 to 1138 residues) N983A mutant by microscale thermophoresis analysis
Rho guanine nucleotide exchange factor 12 (Homo sapiens, UniProt Q9NZN5, N983A), sequence (Q9NZN5 2-1544 N983A limits assumed): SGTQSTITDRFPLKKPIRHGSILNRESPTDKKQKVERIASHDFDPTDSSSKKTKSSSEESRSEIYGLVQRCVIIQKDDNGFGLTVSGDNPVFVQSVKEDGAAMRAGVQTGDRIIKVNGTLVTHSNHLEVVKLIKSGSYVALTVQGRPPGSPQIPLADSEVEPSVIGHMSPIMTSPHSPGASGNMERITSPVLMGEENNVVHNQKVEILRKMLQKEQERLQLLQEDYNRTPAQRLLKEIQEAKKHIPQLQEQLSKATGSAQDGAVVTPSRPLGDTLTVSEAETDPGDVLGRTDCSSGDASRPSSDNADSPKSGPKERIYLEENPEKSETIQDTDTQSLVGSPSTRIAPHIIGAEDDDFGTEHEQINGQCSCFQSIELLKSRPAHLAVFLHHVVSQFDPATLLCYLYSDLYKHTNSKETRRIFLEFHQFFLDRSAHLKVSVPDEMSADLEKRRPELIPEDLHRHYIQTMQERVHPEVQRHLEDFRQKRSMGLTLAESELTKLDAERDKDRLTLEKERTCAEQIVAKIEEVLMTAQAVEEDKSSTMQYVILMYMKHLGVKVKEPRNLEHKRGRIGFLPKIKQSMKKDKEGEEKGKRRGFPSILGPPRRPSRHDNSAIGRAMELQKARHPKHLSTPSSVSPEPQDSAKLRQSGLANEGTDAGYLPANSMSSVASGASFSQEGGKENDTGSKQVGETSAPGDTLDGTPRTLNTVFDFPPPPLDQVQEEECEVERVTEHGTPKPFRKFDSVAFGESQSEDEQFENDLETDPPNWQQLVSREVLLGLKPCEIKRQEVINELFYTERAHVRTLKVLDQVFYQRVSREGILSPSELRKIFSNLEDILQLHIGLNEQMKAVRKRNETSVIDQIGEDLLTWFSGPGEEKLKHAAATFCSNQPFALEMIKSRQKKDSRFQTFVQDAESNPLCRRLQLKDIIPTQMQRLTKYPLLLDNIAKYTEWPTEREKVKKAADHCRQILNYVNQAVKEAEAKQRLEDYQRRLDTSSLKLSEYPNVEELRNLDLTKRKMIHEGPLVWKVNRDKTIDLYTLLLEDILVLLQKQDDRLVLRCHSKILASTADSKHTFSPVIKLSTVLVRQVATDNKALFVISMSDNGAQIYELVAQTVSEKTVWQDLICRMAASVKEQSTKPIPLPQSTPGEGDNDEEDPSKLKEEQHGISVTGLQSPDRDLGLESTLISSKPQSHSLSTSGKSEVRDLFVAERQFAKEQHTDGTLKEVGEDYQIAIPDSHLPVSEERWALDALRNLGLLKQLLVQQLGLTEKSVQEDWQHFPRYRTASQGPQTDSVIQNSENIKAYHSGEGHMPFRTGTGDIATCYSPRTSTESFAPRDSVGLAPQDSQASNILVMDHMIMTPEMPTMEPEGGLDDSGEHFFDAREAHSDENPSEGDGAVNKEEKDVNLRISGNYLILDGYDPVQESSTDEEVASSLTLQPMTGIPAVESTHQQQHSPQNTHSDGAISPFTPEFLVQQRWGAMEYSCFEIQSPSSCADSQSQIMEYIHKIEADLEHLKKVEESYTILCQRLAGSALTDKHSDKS

T1 sequence (Q9NZN5 whole entry, the tested form may be a part): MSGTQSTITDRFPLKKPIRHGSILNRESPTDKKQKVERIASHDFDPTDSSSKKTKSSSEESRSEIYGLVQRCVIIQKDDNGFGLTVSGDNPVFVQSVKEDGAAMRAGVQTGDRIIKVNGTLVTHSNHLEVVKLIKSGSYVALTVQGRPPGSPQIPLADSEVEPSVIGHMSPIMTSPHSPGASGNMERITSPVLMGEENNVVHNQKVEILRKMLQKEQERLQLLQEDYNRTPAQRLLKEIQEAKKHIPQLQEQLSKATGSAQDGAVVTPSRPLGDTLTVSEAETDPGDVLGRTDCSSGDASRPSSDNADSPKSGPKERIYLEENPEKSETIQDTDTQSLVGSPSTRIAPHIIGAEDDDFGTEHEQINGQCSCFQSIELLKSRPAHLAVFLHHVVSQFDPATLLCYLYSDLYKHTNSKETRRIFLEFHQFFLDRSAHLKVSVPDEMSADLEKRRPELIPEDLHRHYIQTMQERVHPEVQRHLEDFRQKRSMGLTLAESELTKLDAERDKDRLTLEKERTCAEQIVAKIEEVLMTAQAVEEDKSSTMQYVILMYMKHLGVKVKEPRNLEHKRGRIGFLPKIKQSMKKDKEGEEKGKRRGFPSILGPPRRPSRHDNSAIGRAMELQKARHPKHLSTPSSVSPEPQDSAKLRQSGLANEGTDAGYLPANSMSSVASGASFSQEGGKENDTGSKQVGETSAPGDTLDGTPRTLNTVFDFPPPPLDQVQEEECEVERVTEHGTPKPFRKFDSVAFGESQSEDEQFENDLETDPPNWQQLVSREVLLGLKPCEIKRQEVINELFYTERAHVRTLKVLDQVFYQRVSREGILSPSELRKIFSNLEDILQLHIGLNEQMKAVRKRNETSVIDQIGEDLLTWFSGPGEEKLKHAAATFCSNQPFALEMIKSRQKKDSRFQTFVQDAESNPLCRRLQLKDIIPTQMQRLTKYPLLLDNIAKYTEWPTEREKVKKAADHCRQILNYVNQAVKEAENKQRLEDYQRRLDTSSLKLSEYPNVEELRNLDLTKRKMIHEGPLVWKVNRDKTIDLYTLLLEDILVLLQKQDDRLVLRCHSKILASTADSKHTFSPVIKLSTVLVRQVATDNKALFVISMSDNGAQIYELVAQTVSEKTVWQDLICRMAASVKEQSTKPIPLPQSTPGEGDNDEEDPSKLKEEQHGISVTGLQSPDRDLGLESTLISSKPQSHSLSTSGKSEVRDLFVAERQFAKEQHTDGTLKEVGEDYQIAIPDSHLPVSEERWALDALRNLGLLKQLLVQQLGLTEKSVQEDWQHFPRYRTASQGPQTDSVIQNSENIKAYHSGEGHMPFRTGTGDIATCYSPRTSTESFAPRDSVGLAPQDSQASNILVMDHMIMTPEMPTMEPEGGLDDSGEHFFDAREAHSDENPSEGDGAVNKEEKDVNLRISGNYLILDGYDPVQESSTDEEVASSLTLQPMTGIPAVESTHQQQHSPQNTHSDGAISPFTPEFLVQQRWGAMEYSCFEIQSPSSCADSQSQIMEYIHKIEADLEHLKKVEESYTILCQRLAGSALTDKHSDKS
Transforming protein RhoA (Homo sapiens), P61586 [Q63L], sequence (P61586 whole entry Q63L): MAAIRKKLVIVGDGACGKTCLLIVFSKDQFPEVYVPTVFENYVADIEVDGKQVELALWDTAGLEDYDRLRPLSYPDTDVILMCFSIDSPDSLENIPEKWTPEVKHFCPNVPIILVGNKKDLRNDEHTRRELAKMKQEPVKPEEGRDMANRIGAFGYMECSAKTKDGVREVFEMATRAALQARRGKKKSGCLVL
Rho-associated protein kinase 2 (Homo sapiens), O75116 [UNDEFINED MUTATION], sequence (O75116 whole entry, looked up, stated change not applied): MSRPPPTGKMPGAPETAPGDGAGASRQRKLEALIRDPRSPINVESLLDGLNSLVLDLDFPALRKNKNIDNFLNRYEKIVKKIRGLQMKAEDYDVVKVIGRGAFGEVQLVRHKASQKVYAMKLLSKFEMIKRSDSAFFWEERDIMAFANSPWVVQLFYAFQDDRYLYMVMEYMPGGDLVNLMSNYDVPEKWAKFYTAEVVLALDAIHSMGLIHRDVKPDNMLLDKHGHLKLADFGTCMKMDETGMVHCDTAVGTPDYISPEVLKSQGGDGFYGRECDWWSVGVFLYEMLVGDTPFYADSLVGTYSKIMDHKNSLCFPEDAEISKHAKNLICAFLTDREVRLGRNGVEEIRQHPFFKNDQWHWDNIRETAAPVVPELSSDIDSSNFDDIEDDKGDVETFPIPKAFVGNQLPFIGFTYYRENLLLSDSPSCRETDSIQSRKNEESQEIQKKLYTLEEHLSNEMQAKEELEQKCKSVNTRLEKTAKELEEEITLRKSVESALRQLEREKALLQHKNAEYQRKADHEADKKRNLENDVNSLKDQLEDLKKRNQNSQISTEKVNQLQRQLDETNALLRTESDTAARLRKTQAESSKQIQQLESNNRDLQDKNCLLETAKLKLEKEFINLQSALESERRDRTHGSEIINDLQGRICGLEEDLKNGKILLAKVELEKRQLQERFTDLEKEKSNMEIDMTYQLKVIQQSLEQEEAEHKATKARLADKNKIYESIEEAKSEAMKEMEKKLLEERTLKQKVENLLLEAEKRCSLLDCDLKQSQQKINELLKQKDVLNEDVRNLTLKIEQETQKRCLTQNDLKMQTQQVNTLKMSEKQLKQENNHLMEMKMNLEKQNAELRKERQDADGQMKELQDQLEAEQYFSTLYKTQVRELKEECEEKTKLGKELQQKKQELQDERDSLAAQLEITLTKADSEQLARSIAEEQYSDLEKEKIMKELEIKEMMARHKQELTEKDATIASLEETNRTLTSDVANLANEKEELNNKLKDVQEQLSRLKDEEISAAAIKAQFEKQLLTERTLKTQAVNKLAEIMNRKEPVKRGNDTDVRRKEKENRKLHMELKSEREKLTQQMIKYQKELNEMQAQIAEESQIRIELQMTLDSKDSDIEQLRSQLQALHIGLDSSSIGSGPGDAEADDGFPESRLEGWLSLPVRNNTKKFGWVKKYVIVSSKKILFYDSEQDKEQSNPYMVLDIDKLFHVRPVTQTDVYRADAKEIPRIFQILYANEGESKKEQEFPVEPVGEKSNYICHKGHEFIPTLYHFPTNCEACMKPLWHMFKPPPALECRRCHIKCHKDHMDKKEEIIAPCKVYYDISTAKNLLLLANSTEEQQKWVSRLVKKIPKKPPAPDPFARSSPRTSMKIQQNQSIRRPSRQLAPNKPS

Cc1cccc(COc2cccc(/C=C3\C(=O)NN(c4ccccc4)C3=O)c2)c1
inhibition [1]: inactive
inhibition [2]: Active
Kd [3]: 65 to 76 nM
inhibition [4]: Active
fold change (FC) [5]: 0.61
inhibition [6]: inactive
fold change (FC) [7]: 0.93
IC50 [8]: 5 µM
fold change (FC) [9]: 0.27
fold change (FC) [10]: 0.15
IC50 [11]: 1000 nM
inhibition [12]: Active
fold change (FC) [13]: 0.87
inhibition [14]: Active
fold change (FC) [15]: 2.36
inhibition [16]: inactive
inhibition [17]: inactive
inhibition [18]: Active
inhibition [19]: inactive
inhibition [20]: inactive
fold change (FC) [21]: 0.28
inhibition [22]: inactive
inhibition [23]: 70%
inhibition [24]: Dose-dependent effect
fold change (FC) [25]: 0.8
fold change (FC) [26]: 1.25
Kd [27]: > 500 µM
